Assay results published in patent US9902725B2, “Heterocyclic derivatives as RORgamma modulators” (GENFIT, priority 2014, dated 2018).

How the values were obtained:
[1] = biological target: T1, RORγt ligand-binding domain (RORγt-LBD) (Homo sapiens, UniProt P51449); assay: Time-resolved FRET (TR-FRET) RORγt coactivator assay; type: biochemical; settings: GST-RORγ-LBD, biotinylated RIP140 peptide, coactivator displacement
T1 construct: 20 nM recombinantly expressed RORγ-LBD fused to GST
T1 sequence (P51449 269-508 limits assumed): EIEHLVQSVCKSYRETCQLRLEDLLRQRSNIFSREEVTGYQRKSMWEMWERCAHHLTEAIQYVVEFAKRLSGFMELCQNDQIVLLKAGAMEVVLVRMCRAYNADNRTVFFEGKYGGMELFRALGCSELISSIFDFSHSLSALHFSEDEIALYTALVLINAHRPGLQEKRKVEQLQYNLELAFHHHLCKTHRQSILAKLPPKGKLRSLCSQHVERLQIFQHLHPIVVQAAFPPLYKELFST

human RORγt [2] = biological target: T2, human RORγt (Homo sapiens, UniProt P51449); assay: IL-17 secretion from EL4 murine lymphoma overexpressing human RORγt; type: cell-based; parameters: expressed in transfected cells; host or cells: EL-4 murine lymphoma; settings: IL-17 secretion inhibition, PMA and ionomycin stimulation, 24 h
T2 sequence (P51449 1-497 isoform P51449-2): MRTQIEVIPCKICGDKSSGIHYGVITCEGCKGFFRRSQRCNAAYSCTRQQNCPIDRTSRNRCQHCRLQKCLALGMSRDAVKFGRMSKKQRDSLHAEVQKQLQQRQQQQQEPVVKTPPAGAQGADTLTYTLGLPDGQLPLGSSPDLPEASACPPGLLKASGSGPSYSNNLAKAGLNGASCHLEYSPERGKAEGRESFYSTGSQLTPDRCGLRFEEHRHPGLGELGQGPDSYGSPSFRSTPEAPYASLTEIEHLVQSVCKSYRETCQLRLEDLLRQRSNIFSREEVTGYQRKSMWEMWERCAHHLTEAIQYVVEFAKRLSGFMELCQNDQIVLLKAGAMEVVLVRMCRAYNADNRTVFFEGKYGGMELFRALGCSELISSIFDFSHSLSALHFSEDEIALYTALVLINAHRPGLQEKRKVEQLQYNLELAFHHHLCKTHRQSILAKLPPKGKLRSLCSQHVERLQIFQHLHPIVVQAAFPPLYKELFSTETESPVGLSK
Method in brief: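 EL4 murine lymphoma cells electroporated with hRORγt plasmid, seeded 150000 cells/well, pretreated with compound, then stimulated with PMA (10 ng/mL) and ionomycin (1 μM final) with compound for a further 24 h at 37° C. IL-17 in supernatant measured by HTRF or ELISA.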

human RORγt [3] = biological target: T2, human RORγt; assay: RORE luciferase/RORγt transactivation assay; type: cell-based; parameters: expressed in transfected cells; settings: COS-7 cells transfected with IL-17 promoter luciferase reporter and RORγt plasmid, 20 h
Source text: It is well known that RORγ binds to a conserved non-coding sequence (CNS) enhancer element in the IL-17 promoter. Accordingly, we have used in this assay a luciferase reporter gene construct that contains the human IL-17 promoter fragment with RORγ-specific CNS enhancer element and a RORγt overexpressing plasmid, to indirectly assess the effect of compounds on RORγ activity. Inhibition of RORγ activity by test compounds will result in a decrease in luciferase activity in COS-7 cells transfected with the reporter construct.
Monkey Kidney COS-7 cell line are maintained in a standard culture medium Dulbecco's modified Eagle's minimal (DMEM) medium supplemented with 10% fetal calf serum, 1% sodium pyruvate, 1% essential amino acids and 1% antibiotics at 37° C. in a humidified atmosphere of 5% CO2 and 95% air. Culture medium was changed every 2 days.
The 4.3 Kb human IL-17 promoter containing the RORγ-specific CNS enhancer element was PCR amplified from human genomic DNA and cloned into a pGL3-TKLuc2Cp reporter plasmid. To overexpress RORγt, the full-length cDNA of human RORγt (identical to published sequence NM 001001523) was cloned without any restriction into pcdna3.1DV5-His-topo to generate the RORγt overexpression plasmid “RORγt_FL_h_pcDNA3.1DV5-His-TOPO_1”.
The luciferase reporter plasmid and the RORγt overexpression plasmid were transfected into COS-7 cell line using 4 μLJetPEITM/μg of DNA. Briefly, 150 ng of DNA (ration ½ between RORE-Tk Luc2Cp and cDNA RORγt or the empty vector for the negative control) was served to transfect adherent COS-7 cells in a […] culture flask, in complete medium (see cos-7 cell line culture). Cells were incubated for 24 hours in a humidified atmosphere of 5% CO2 and 95% air
Cells were then detached (using trypsin) and washed by centrifugation at 300 g for 10 minutes. Cell pellet was resuspended in serum free/phenol red free DMEM and seeded in 384 well plates at a density of 10000 cells/well and then incubated for 4 h at 37° C.
Compounds were dissolved in 100% DMSO to obtain 10 mM stock solutions. For each compound, test concentrations were diluted in serum free/phenol red free DMEM using the Genesis Freedom 200™ (TECAN) and added to the cells to obtain a 0.3% DMSO final concentration (in a final volume of 40 μL per well). T091317 was used as reference compound. Cells were incubated in presence of compounds for an additional 20 h at 37° C. in a humidified atmosphere of 5% CO2 and 95% air
The luciferase activity was then measured with 40 μL/well steady-Glo Luciferase assay system (Promega, Madison, Wis.) and after incubation at room temperature for 30 minutes. The luminescence was estimated using the Ultra384 reader (TECAN). Data were collected and analyzed using GraphPad Prism software (GraphPad Software V5.02, San Diego Calif. USA). IC50 in μM and Emax in % were reported for each compound.

SMILES	IC50 [1] [µM]	IC50 (human RORγt [2]) [µM]	IC50 (human RORγt [3]) [µM]
Cc1ccc(C(NC(=O)Cc2ccc3[nH]cc(CCC(=O)O)c3c2)c2ccccc2)c2ccccc12 (centres unmarked) [compound 37, 3-[5-({[(4-methylnaphthalen-1-yl)(phenyl)methyl]carbamoyl}methyl)-1H-indol-3-yl]propanoic acid]	< 1	10 to 30	1 to 10
O=C(O)CCc1c[nH]c2ccc(CC(=O)NC(c3ccccc3)c3ccccc3N3CCCCCC3)cc12 (centres unmarked) [compound 35, 3-{5-[({[2-(azepan-1-yl)phenyl](phenyl)methyl}carbamoyl)methyl]-1H-indol-3-yl}propanoic acid]	< 1	1 to 10	< 1
Cc1ccc(C(NC(=O)Cc2ccc3[nH]cc(CCC(=O)O)c3c2)c2ccccc2)c(N2CCCC2)n1 (centres unmarked) [Cpd. 15, 3-{5-[({[6-methyl-2-(pyrrolidin-1-yl)pyridin-3-yl](phenyl)methyl}carbamoyl)methyl]-1H-indol-3-yl}propanoic acid]	< 1	10 to 30	1 to 10
Cc1ccc(F)c(C(NC(=O)Cc2ccc3[nH]cc(CCC(=O)O)c3c2)c2ccccc2)c1 (centres unmarked) [Cpd. 19, 3-[5-({[(2-fluoro-5-methylphenyl)(phenyl)methyl]carbamoyl}methyl)-1H-indol-3-yl]propanoic acid]	1 to 10	–	> 10
Cc1ccc(C(NC(=O)Cc2ccc3[nH]cc(CCC(=O)O)c3c2)c2ccccc2)c(Br)c1 (centres unmarked) [Cpd. 9, 3-[5-({[(2-bromo-4-methylphenyl)(phenyl)methyl]carbamoyl}methyl)-1H-indol-3-yl]propanoic acid]	< 1	–	1 to 10
O=C(O)Cc1c[nH]c2ccc(CC(=O)NC(c3ccccc3)c3ccccc3N3CCCCC3)cc12 (centres unmarked) [Cpd. 39, 2-{5-[({phenyl[2-(piperidin-1-yl)phenyl]methyl}carbamoyl)methyl]-1H-indol-3-yl}acetic acid]	1 to 10	–	1 to 10
Cc1ccc(C(NC(=O)Cc2ccc3[nH]cc(CCC(=O)O)c3c2)c2ccccc2)c(F)c1 (centres unmarked) [Cpd. 17, 3-[5-({[(2-fluoro-4-methylphenyl)(phenyl)methyl]carbamoyl}methyl)-1H-indol-3-yl]propanoic acid]	1 to 10	–	> 10
Cc1ccc(C(NC(=O)Cc2ccc3[nH]cc(CCC(=O)O)c3c2)c2ccccn2)c(C)c1 (centres unmarked) [Cpd. 21, 3-[5-({[(2,4-dimethylphenyl)(pyridin-2-yl)methyl]carbamoyl}methyl)-1H-indol-3-yl]propanoic acid]	< 1	–	> 10
Cc1cc(Cl)ccc1C(NC(=O)Cc1ccc2[nH]cc(CCC(=O)O)c2c1)c1ccccc1 (centres unmarked) [compound 33, 3-[5-({[(4-chloro-2-methylphenyl)(phenyl)methyl]carbamoyl}methyl)-1H-indol-3-yl]propanoic acid]	< 1	–	1 to 10
Cc1ccc(C(NC(=O)Cc2ccc3[nH]cc(CCC(=O)O)c3c2)c2ccccc2)c2ncccc12 (centres unmarked) [compound 31, 3-[5-({[(5-methylquinolin-8-yl)(phenyl)methyl]carbamoyl}methyl)-1H-indol-3-yl]propanoic acid]	< 1	–	> 10
